Measurements taken from ChEMBL document CHEMBL1201862, “PubChem BioAssay data set” (2004).
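Method: 48-hour compound exposure of cells in 96-well plates, five concentrations, linear interpolation of endpoints. The concentration for 50% growth inhibition is given as GI50.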 Calls of active or inactive are those of the source. Cut-off read from the data, not from the text of the source: active = GI50 up to about 1.1 µM and inactive = higher.

Experiments:
Test in all cases: inhibition of tumour cell growth, NCI panel, 48 h
[1] = tested on: HCT-116
[2] = tested on: SR
[3] = tested on: CCRF-CEM
[4] = tested on: HCC 2998
[5] = tested on: TK-10
[6] = tested on: A498
[7] = tested on: K562
[8] = tested on: OVCAR-5
[9] = tested on: SF-268
[10] = tested on: LOX IMVI
[11] = tested on: OVCAR-3
[12] = tested on: HL-60
[13] = tested on: NCI-H460
[14] = tested on: RPMI-8226
[15] = tested on: ACHN
[16] = tested on: SNB-75
[17] = tested on: Hs-578T
[18] = tested on: EKVX
[19] = tested on: SNB-19

| SMILES | GI50 [1] | GI50 [2] | GI50 [3] | GI50 [4] | GI50 [5] | GI50 [6] | GI50 [7] | GI50 [8] | GI50 [9] | GI50 [10] | GI50 [11] | GI50 [12] | GI50 [13] | GI50 [14] | GI50 [15] | GI50 [16] | GI50 [17] | GI50 [18] | GI50 [19] |
| --- | --- | --- | --- | --- | --- | --- | --- | --- | --- | --- | --- | --- | --- | --- | --- | --- | --- | --- | --- |
| O=S1(=O)c2ccccc2C(=NO)c2ccccc21 | > 100 µM (inactive) | 29.8 µM (inactive) | 47.1 µM (inactive) | > 100 µM (inactive) | > 100 µM (inactive) | > 100 µM (inactive) | 68.2 µM (inactive) | > 100 µM (inactive) | > 100 µM (inactive) | 80.2 µM (inactive) | 39.7 µM (inactive) | 14.8 µM (inactive) | > 100 µM (inactive) | 59.4 µM (inactive) | > 100 µM (inactive) | > 100 µM (inactive) | 63.8 µM (inactive) | 35.3 µM (inactive) |  |
| CC(C)=CCN1c2ccccc2NC(=O)CC1C (configuration not stated) |  | 56.5 µM (inactive) | > 100 µM (inactive) | > 100 µM (inactive) | 55.8 µM (inactive) | 83.8 µM (inactive) | > 100 µM (inactive) | > 100 µM (inactive) | > 100 µM (inactive) | > 100 µM (inactive) | 70.6 µM (inactive) | 61.2 µM (inactive) | > 100 µM (inactive) | > 100 µM (inactive) | 71.1 µM (inactive) |  | > 100 µM (inactive) | 51.3 µM (inactive) | > 100 µM (inactive) |
| COC(=O)[C@]1(CCC(C)=O)C(=O)C=CN([C@H](C)c2ccccc2)[C@@H]1Cc1ccc(OC)c(OCc2ccccc2)c1I | 14 µM (inactive) | 15.7 µM (inactive) | 25.4 µM (inactive) | 14.2 µM (inactive) | 21.5 µM (inactive) | 22.5 µM (inactive) | 17.8 µM (inactive) | 22.7 µM (inactive) | 15.4 µM (inactive) | 17.2 µM (inactive) | 16.8 µM (inactive) | 24 µM (inactive) | 15.9 µM (inactive) | 14.7 µM (inactive) | 25.7 µM (inactive) |  | 24 µM (inactive) | 29.6 µM (inactive) | 22.5 µM (inactive) |
| c1ccc(-c2cccc(-c3ccccn3)n2)nc1 [TERPYRIDINE] | 0.344 µM (active) | 0.317 µM (active) | 0.249 µM (active) | 0.298 µM (active) | 0.847 µM (active) | 1.09 µM (active) | 0.345 µM (active) | 0.755 µM (active) | 0.495 µM (active) |  | 0.316 µM (active) | 0.173 µM (active) | 0.382 µM (active) | 0.315 µM (active) | 0.385 µM (active) | 1.57 µM (inactive) | 7.06 µM (inactive) | 0.476 µM (active) | 0.935 µM (active) |
| CC1(C)Oc2ccc3c(=O)cc(-c4cccs4)oc3c2C1C(=O)O (configuration not stated) | > 100 µM (inactive) | > 100 µM (inactive) | > 100 µM (inactive) | > 100 µM (inactive) | > 100 µM (inactive) | > 100 µM (inactive) | > 100 µM (inactive) | > 100 µM (inactive) | > 100 µM (inactive) |  | > 100 µM (inactive) | > 100 µM (inactive) |  |  |  |  | > 100 µM (inactive) | > 100 µM (inactive) |  |
| COc1ccc(-n2c(N)c(C#N)c(C#N)c2-c2cccc([N+](=O)[O-])c2)cc1 |  | 18.7 µM (inactive) | 5.31 µM (inactive) | > 100 µM (inactive) | > 100 µM (inactive) | > 100 µM (inactive) | > 100 µM (inactive) | > 100 µM (inactive) | 51.9 µM (inactive) | 48.3 µM (inactive) | > 100 µM (inactive) | > 100 µM (inactive) |  | 5.37 µM (inactive) | 91 µM (inactive) | 2.96 µM (inactive) | 15.3 µM (inactive) | 26 µM (inactive) | 49.8 µM (inactive) |
| O=Cc1c(-c2ccccc2)nc2ccccc2c1O | 41.9 µM (inactive) | < 0.01 µM (active) |  | 58.5 µM (inactive) | > 100 µM (inactive) | 81.8 µM (inactive) |  | > 100 µM (inactive) | 59.3 µM (inactive) | 42.2 µM (inactive) | 49.8 µM (inactive) |  | 48.2 µM (inactive) | 34.7 µM (inactive) | > 100 µM (inactive) | 34.5 µM (inactive) | 30.1 µM (inactive) | 85.1 µM (inactive) | > 100 µM (inactive) |
| O=C(O)/C(=C\c1ccc(O)cc1)c1cccc2ccccc12 | > 100 µM (inactive) | > 100 µM (inactive) |  | > 100 µM (inactive) | > 100 µM (inactive) | > 100 µM (inactive) | > 100 µM (inactive) | > 100 µM (inactive) | > 100 µM (inactive) | > 100 µM (inactive) | 64.4 µM (inactive) |  | > 100 µM (inactive) |  | > 100 µM (inactive) | > 100 µM (inactive) | > 100 µM (inactive) | 90.6 µM (inactive) | > 100 µM (inactive) |
| C=C([C@@]1(O)C[C@H]2[C@H](CCC2(OC)OC)[C@@H]2c3ccccc3O[C@@H]21)[Si](C)(C)C | > 100 µM (inactive) | 31.9 µM (inactive) |  | > 100 µM (inactive) | > 100 µM (inactive) | > 100 µM (inactive) | 59.3 µM (inactive) | > 100 µM (inactive) | > 100 µM (inactive) | > 100 µM (inactive) | > 100 µM (inactive) | 25.5 µM (inactive) | > 100 µM (inactive) | 44.4 µM (inactive) | > 100 µM (inactive) | > 100 µM (inactive) | > 100 µM (inactive) | > 100 µM (inactive) | > 100 µM (inactive) |
| COc1cccc2c3ccccc3c3nc[nH]c3c12 | 29.8 µM (inactive) | 14.6 µM (inactive) | 12.4 µM (inactive) | 23.9 µM (inactive) | 26.1 µM (inactive) | 23.1 µM (inactive) | 12.4 µM (inactive) | 55.3 µM (inactive) | 62.1 µM (inactive) | 33.8 µM (inactive) | > 100 µM (inactive) |  | 23.7 µM (inactive) | 21.9 µM (inactive) | 44.2 µM (inactive) | > 47.8 µM (inactive) | < 0.01 µM (active) | > 48.3 µM (inactive) | > 46.8 µM (inactive) |
| O=C(O)c1nc2ccc(C(F)(F)F)cc2nc1Nc1ccc(F)cc1 | 15.1 µM (inactive) | 12.1 µM (inactive) |  | 15.7 µM (inactive) | 36.6 µM (inactive) | 16.9 µM (inactive) | 11.2 µM (inactive) | 28.4 µM (inactive) | 15.5 µM (inactive) | 18.5 µM (inactive) | 12.2 µM (inactive) | 12.6 µM (inactive) | 16.1 µM (inactive) |  | 21.4 µM (inactive) | 23.3 µM (inactive) | 36.4 µM (inactive) | 20.7 µM (inactive) | > 10 µM (inactive) |
| O=C(Cc1nc2ncccc2[nH]c1=O)c1c[nH]c2ccccc12 | 22.2 µM (inactive) | 30 µM (inactive) | 13.4 µM (inactive) | 19.8 µM (inactive) | 16.7 µM (inactive) | 17.7 µM (inactive) | 21.4 µM (inactive) | 24.2 µM (inactive) | 14.9 µM (inactive) | 20.7 µM (inactive) | 18 µM (inactive) | 32.1 µM (inactive) | 17.3 µM (inactive) | 16.7 µM (inactive) | 16.5 µM (inactive) |  | 18.6 µM (inactive) | 21.4 µM (inactive) | 18.3 µM (inactive) |
| OCC1CCCCN1Cc1nc2cc(Cl)ccc2[nH]1 (configuration not stated) | > 100 µM (inactive) | > 100 µM (inactive) | > 100 µM (inactive) | > 100 µM (inactive) | > 100 µM (inactive) | > 100 µM (inactive) | > 100 µM (inactive) | > 100 µM (inactive) | > 100 µM (inactive) |  | > 100 µM (inactive) | > 100 µM (inactive) | > 100 µM (inactive) | > 100 µM (inactive) | > 100 µM (inactive) | > 100 µM (inactive) | > 100 µM (inactive) | > 100 µM (inactive) | > 100 µM (inactive) |
| O=C1c2ccccc2C(=O)N1C1(C(=O)NC2(C(=O)O)CCCC2)CCCC1 | > 100 µM (inactive) | > 100 µM (inactive) | > 100 µM (inactive) | > 100 µM (inactive) | > 100 µM (inactive) | > 100 µM (inactive) | > 100 µM (inactive) | > 100 µM (inactive) | > 100 µM (inactive) | > 100 µM (inactive) | > 100 µM (inactive) |  |  | > 100 µM (inactive) | > 100 µM (inactive) | > 100 µM (inactive) | > 100 µM (inactive) | > 100 µM (inactive) | > 100 µM (inactive) |
| COC(=O)c1cc(=O)n(-c2ccc3nn(C)nc3c2)cc1C(=O)OC | > 100 µM (inactive) | > 100 µM (inactive) | > 100 µM (inactive) | > 100 µM (inactive) | > 100 µM (inactive) | > 100 µM (inactive) | > 100 µM (inactive) | > 100 µM (inactive) | > 100 µM (inactive) |  | > 100 µM (inactive) |  | > 100 µM (inactive) | > 100 µM (inactive) | > 100 µM (inactive) | > 100 µM (inactive) | > 100 µM (inactive) | > 100 µM (inactive) | > 100 µM (inactive) |
| CC(C)c1cccc(C(=O)NCCN(C)C)c1[N+](=O)[O-] | > 100 µM (inactive) | > 100 µM (inactive) | > 100 µM (inactive) | > 100 µM (inactive) | > 100 µM (inactive) | 65.9 µM (inactive) | > 100 µM (inactive) | > 100 µM (inactive) | > 100 µM (inactive) |  | > 100 µM (inactive) | > 100 µM (inactive) | > 100 µM (inactive) |  | > 100 µM (inactive) | 35 µM (inactive) | > 100 µM (inactive) |  | > 100 µM (inactive) |
